Measurements reported in US20260049068A1, “Substituted Tetrazolyl Compounds Useful as T Cell Activators” (BRISTOL-MYERS SQUIBB COMPANY, priority 2022, published 2026).

Tests used:
DGKα-YFP in Jurkat cells = DGKα-YFP in Jurkat cells (Homo sapiens (Human), UniProt P23743); test: In vitro DGKα translocation assay; type: cell-based; conditions: 1 hour at 37° C., top concentration 10 μM, read-out: DGKalpha Translocation EC50
Excerpt: Jurkat cells were transduced with lentiviral constructs overexpressing DGKα-YFP (N-terminal tagged), selected by puromycin, and were FACs sorted to establish stable lines expressing each isoform (Jurkat-DGKα-YFP=BXA-212700-01-001, Jurkat-DGKz-YFP=BXA-212701-01-001). Cell lines were maintained in growth media (RPMI supplemented with 10% FBS and pen/strep). All translocation assays were run in assay media (RPMI supplemented with 10% FBS and no antibiotics).
For translocation assays cells were plated onto Perkin Elmer CellCarrier-384 Ultra Microplates (Perkin Elmer cat #6057500) at a density of 30,000 cells/well, in a volume of 40 μL of assay media. Compounds were then transferred to the cells by an Echo Acoustic Liquid Handler (Echo 655). […] Treated cells were then incubated at 37° C. for 1 hour. Cells were then fixed with 4% formaldehyde (Thermo cat #28906) for 15 minutes, centrifuged briefly to increase cell retention (250 rpm for 5 minutes), and then washed 3× with 50 μL PBS. Cells were then stained with Hoechst, and washed 2× with 50 ul PBS. Next, 50 μL PBS was added to each well, plates were sealed, and plates were imaged on an Opera Phenix High Content screening system. Imaging was done with the 40× water objective. The YFP channel was set at 100% power for […], 10 regions/well were imaged and analyzed. Data analysis was done with Columbus Image Analysis software (Perk-in Elmer).

Full length human DGKα = Full length human DGKα (Homo sapiens (Human), UniProt P23743);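 further: ADP-Glo luminescence assay of ADP formed by 5 nM full-length DGKα on extruded PS/DAG/PC liposomes with 150 µM ATP, 1 h reaction, 11-point inhibitor titration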
Full length human DGKα, sequence (P23743 other isoform, or with tags, fused parts or gaps): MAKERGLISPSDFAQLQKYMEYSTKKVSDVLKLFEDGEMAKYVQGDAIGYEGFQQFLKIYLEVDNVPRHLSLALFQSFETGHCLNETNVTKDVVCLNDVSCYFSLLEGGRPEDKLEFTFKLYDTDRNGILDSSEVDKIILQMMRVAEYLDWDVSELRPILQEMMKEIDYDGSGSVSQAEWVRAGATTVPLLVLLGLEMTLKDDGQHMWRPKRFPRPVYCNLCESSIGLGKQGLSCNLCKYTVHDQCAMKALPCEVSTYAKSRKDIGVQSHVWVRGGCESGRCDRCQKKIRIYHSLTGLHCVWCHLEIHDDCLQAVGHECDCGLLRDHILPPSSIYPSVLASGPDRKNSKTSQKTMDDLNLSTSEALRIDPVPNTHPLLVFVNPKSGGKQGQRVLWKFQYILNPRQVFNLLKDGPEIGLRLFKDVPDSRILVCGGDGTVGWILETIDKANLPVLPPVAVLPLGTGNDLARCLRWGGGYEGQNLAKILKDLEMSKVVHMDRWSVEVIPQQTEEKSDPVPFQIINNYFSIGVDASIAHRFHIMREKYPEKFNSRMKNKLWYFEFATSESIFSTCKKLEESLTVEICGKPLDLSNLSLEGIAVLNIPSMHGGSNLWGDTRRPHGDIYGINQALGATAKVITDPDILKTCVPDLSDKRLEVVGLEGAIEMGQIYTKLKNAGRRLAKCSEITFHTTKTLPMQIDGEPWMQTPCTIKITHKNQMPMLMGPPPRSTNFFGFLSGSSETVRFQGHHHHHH
Procedure: The DGKα (Full Length and Near Full Length) ADP Glo assays were performed using an extruded liposome prep at either 5% DAG or 10% DAG. The Enzymatic reactions were carried out in 50 mM MOPS pH 7.5, 100 mM NaCl, 10 mM MgCl2, 1 μM CaCl2, and 1 mM DTT (assay buffer). The lipid substrate concentrations were 1.9 mM PS, either 0.25 mM DAG (5% liposome prep) or 0.5 mM DAG (10% liposome prep), and 2.7 mM PC for the extruded liposome reactions. The reactions were carried out at 150 μM ATP. The enzyme concentrations for the DGKα(Near Full Length) and DGKα(FL) were 5 nM.
The compound inhibition studies were carried out as follows: 25 nL droplets of each test compound (11 point, 3-fold dilution series for each compound) solubilized in DMSO were transferred to wells of a white 1536 well plate (Corning 3725). A 5 mL enzyme/substrate (substrate being the 5× or 10× liposome preparation) solution at 2× final reaction concentrations was prepared by combining 5 ml of the extruded liposome preparation with 10 nM (2× final) DGKα(Near Full Length) or DGKα(Full Length) prepared as described below) and incubated at room temperature for 10 minutes. Next, 1 μL of the 2× enzyme/substrate solution was added to wells containing the test compound and reactions were initiated with the addition of 1 μL 300 uM ATP. Substrate only was added to DMSO only wells for background measurements. The reactions were allowed to proceed for 1 hr, after which 2 μL Glo Reagent (Promega V9101) was added and incubated for 40 minutes. Next, 4 μL Kinase Detection Reagent was added and incubated for 30 minutes. Luminescence was recorded using an EnVision microplate reader. […] The compounds were evaluated at 11 concentrations to determine IC50.

[1] = target: Near full length human DGKα(S9-S727) (Homo sapiens (Human), UniProt P23743); test: DGKα (Near Full Length) ADP Glo assay; type: biochemical; conditions: extruded liposomes 5% or 10% DAG, 150 μM ATP, 5 nM enzyme; read-out: Near Full Length DGKalpha ADPGLO IC50
Near full length human DGKα(S9-S727), sequence (P23743 9-727): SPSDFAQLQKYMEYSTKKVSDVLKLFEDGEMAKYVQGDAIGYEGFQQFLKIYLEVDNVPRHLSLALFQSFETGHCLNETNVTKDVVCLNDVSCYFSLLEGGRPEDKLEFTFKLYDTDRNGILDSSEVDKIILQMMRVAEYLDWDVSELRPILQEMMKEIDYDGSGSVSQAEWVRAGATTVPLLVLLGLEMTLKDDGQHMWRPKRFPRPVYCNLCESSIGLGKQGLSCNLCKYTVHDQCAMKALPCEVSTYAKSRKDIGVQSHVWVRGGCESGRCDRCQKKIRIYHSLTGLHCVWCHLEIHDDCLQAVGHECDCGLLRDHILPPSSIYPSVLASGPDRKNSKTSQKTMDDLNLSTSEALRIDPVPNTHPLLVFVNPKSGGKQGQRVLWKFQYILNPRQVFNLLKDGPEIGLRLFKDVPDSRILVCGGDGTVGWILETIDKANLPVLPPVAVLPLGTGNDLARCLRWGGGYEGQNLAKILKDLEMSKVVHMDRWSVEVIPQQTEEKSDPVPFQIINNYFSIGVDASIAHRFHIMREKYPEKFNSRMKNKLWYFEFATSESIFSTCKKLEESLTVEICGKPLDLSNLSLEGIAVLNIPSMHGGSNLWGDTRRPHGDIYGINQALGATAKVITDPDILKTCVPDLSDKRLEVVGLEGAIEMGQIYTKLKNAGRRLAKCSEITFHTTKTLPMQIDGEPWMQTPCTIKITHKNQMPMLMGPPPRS
Procedure: The reactions were carried out at 150 μM ATP.
Luminescence was recorded using an EnVision microplate reader.

DGKα-YFP in Jurkat cells, sequence (P23743 whole entry, canonical isoform): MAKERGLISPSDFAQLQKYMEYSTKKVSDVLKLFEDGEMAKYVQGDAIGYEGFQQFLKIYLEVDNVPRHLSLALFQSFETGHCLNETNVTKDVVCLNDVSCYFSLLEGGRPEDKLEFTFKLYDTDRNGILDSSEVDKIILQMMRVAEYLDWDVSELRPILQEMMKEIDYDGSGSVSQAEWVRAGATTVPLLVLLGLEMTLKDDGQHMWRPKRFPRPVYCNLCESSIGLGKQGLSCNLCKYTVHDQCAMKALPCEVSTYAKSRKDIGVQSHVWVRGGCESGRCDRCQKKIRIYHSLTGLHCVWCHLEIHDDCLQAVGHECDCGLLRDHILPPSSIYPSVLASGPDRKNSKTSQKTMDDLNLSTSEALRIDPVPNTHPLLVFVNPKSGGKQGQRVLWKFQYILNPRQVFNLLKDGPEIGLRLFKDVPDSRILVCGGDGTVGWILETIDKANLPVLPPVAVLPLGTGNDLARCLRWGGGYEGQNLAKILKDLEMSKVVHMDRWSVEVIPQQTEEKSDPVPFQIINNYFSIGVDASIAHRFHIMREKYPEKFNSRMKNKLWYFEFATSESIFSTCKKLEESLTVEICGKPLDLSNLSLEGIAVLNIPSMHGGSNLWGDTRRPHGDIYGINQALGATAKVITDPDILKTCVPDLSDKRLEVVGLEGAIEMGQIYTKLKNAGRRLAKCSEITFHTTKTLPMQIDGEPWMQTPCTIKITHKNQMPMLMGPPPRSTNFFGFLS

| SMILES | EC50 (DGKα-YFP in Jurkat cells) | IC50 (Full length human DGKα) | IC50 [1] |
| --- | --- | --- | --- |
| CCN(Cc1nnnn1-c1ccc(Cl)c(C#N)c1)C1CCCCC1 [Example 13, 2-chloro-5-(5-((cyclohexyl(ethyl)amino)methyl)-1H-tetrazol-1-yl)benzonitrile] | 0.12 µM | 0.09 µM | 0.08 µM |
| CN(Cc1nnnn1-c1ccc(Cl)c(C#N)n1)C1CCCCC1 [Example 14, 3-chloro-6-(5-((cyclohexyl(methyl)amino)methyl)-1H-tetrazol-1-yl)picolinonitrile] | 1.8 µM | 2 µM | 1.1 µM |
| N#Cc1nc(-n2nnnc2CN(CC2CC2)C2CCCCC2)ccc1Cl [Example 15, 3-chloro-6-(5-((cyclohexyl (cyclopropylmethyl)amino)methyl)-1H-tetrazol-1-yl) picolinonitrile] | 2.1 µM | 3.1 µM | 4.3 µM |
| CCN(Cc1nnnn1-c1ccc(Cl)c(C#N)n1)C1CCCCC1 [Example 16, 3-chloro-6-(5-((cyclohexyl(ethyl)amino)methyl)-1H-tetrazol-1-yl)picolinonitrile] | > 10 µM | 2.7 µM | 2.6 µM |
| CN(Cc1nnnn1-c1cccc(C(F)(F)F)c1)C1CCCCC1 [Example 18, N-methyl-N-((1-(3-(trifluoromethyl)phenyl)-1H-tetrazol-5-yl)methyl) cyclohexanamine] | > 5 µM | 9.7 µM | 11 µM |
| CN(Cc1nnnn1-c1cccc(F)c1)C1CCCCC1 [Example 19, N-((1-(3-fluorophenyl)-1H-tetrazol-5-yl)methyl)-N-methylcyclohexanamine] | > 5 µM | 5.2 µM | 5.8 µM |
| CN(Cc1nnnn1-c1ccc(F)c(C#N)c1)C1CCCCC1 [Example 21, 5-(5-((cyclohexyl (methyl)amino)methyl)-1H-tetrazol-1-yl)-2-fluorobenzonitrile] | 1.2 µM | 3.7 µM | 3.1 µM |
| CN(Cc1nnnn1-c1ccc(C(F)(F)F)nc1)C1CCCCC1 [Example 23, N-methyl-N-((1-(6-(trifluormethyl)pyridin-3-yl)-1H-tetrazol-5-yl)methyl) cyclohexanamine] | > 5 µM | 6.5 µM | 3.6 µM |
| COc1ccc(-n2nnnc2CN(C)C2CCCCC2)cc1C#N [Example 24, 5-(5-((cyclohexyl(methyl)amino)methyl)-1H-tetrazol-1-yl)-2-methoxybenzonitrile] | 1.7 µM | 0.9 µM | 0.86 µM |
| Cc1ccc(-n2nnnc2CN(C)C2CCCCC2)cc1C#N [Example 25, 5-(5-((cyclohexyl(methyl)amino)methyl)-1H-tetrazol-1-yl)-2-methylbenzonitrile] | 0.35 µM | 0.14 µM | 0.41 µM |
| CN(Cc1nnnn1-c1ccc(Cl)cc1)C1CCCCC1 [Example 29, N-((1-(4-chlorophenyl)-1H-tetrazol-5-yl)methyl)-N-methylcyclohexanamine] | 0.57 µM | 3.5 µM | 1.7 µM |
